Measurements taken from US6737383B1, “Herbicidal oxadiazolidines” (priority 1999, dated 2004).

Assays:
pitted morningglory = test: Test D pitted morningglory; assay type: in vivo, Ipomoea lacunosa; settings: Postemergence, 0 to 100 scale
purple nutsedge = test: Test D purple nutsedge; assay type: in vivo, Cyperus rotundus; settings: Postemergence, 0 to 100 scale
tall mallow = test: Test D tall mallow; assay type: in vivo, Malva sylvestris; settings: Postemergence, 0 to 100 scale
Green foxtail [1] = test: Test D green foxtail; assay type: in vivo; settings: Rate 250 g/ha; Postemergence; 0 to 100 scale
bermuda-grass = test: Test D bermudagrass; assay type: in vivo, Cynodon dactylon; settings: Postemergence, 0 to 100 scale
common groundsel = test: Test D common groundsel; assay type: in vivo, Senecio vulgaris; settings: Postemergence, 0 to 100 scale
Johnson grass = test: Test D Johnson grass; assay type: in vivo, Sorghum halepense; settings: Postemergence, 0 to 100 scale
goosegrass = test: Test D goosegrass; assay type: in vivo, Eleusine indica; settings: Postemergence, 0 to 100 scale
dallisgrass = test: Test D dallisgrass; assay type: in vivo, Paspalum dilatatum; settings: Postemergence, 0 to 100 scale
sandbur = test: Test D sandbur; assay type: in vivo, Cenchrus echinatus; settings: Postemergence, 0 to 100 scale
itchgrass = test: Test D itchgrass; assay type: in vivo, Rottboellia exaltata; settings: Postemergence, 0 to 100 scale
common pursiane = test: Test D common purslane; assay type: in vivo, Portulaca oleracea; settings: Postemergence, 0 to 100 scale
Green foxtail [2] = test: Test D green foxtail; assay type: in vivo; settings: Postemergence, 0 to 100 scale, 0 no injury, 100 complete control
[3] = Rate 16 g/ha, 0 no injury, 100 complete control
[4] = Rate 32 g/ha, 0 no injury, 100 complete control
[5] = Rate 64 g/ha, 0 no injury, 100 complete control
[6] = Rate 125 g/ha, 0 no injury, 100 complete control

CC(C)N(C(=O)n1oc(=O)n(C2CC2)c1=O)c1ccccc1 [Compound 243]
Plant response rating, P. morninglory (pitted morningglory; [3]): 0
Plant response rating, P. morninglory (pitted morningglory; [4]): 0
Plant response rating, P. morninglory (pitted morningglory; [5]): 0
Plant response rating, P. morninglory (pitted morningglory; [6]): 0
Plant response rating, P. morninglory (pitted morningglory; Rate 250 g/ha): 40
Plant response rating, Purple nutsedge (purple nutsedge; [3]): 0
Plant response rating, Purple nutsedge (purple nutsedge; [4]): 0
Purple nutsedge plant response rating (purple nutsedge; [5]): 0
Purple nutsedge plant response rating (purple nutsedge; [6]): 10
Plant response rating, Purple nutsedge (purple nutsedge; Rate 250 g/ha): 100
Plant response rating, Tall Mallow (tall mallow; [3]): 50
Plant response rating, Tall Mallow (tall mallow; [4]): 20
Tall Mallow plant response rating (tall mallow; [5]): 30
Tall Mallow plant response rating (tall mallow; [6]): 40
Plant response rating, Tall Mallow (tall mallow; Rate 250 g/ha): 60
Plant response rating, Green foxtail (Green foxtail [1]): 100
Plant response rating, Bermudagrass (bermuda-grass; [3]): 20
Plant response rating, Bermudagrass (bermuda-grass; [4]): 60
Plant response rating, Bermudagrass (bermuda-grass; [5]): 100
Plant response rating, Bermudagrass (bermuda-grass; [6]): 100
Plant response rating, Bermudagrass (bermuda-grass; Rate 250 g/ha): 100
Plant response rating, Com. groundsel (common groundsel; [3]): 0
Plant response rating, Com. groundsel (common groundsel; [4]): 0
Plant response rating, Com. groundsel (common groundsel; [5]): 0
Plant response rating, Com. groundsel (common groundsel; [6]): 100
Plant response rating, Com. groundsel (common groundsel; Rate 250 g/ha): 100
Plant response rating Johnsongrass (Johnson grass; [3]): 0
Plant response rating Johnsongrass (Johnson grass; [4]): 0
Plant response rating Johnsongrass (Johnson grass; [5]): 0
Plant response rating Johnsongrass (Johnson grass; [6]): 30
Plant response rating Johnsongrass (Johnson grass; Rate 250 g/ha): 100
Plant response rating, Goosegrass (goosegrass; [3]): 70
Plant response rating, Goosegrass (goosegrass; [4]): 80
Plant response rating, Goosegrass (goosegrass; [5]): 100
Plant response rating, Goosegrass (goosegrass; [6]): 100
Plant response rating, Goosegrass (goosegrass; Rate 250 g/ha): 100
Plant response rating, Dallisgrass (dallisgrass; [3]): 0
Plant response rating, Dallisgrass (dallisgrass; [4]): 50
Plant response rating, Dallisgrass (dallisgrass; [5]): 70
Plant response rating, Dallisgrass (dallisgrass; [6]): 100
Plant response rating, Dallisgrass (dallisgrass; Rate 250 g/ha): 100
Plant response rating, Sandbur (sandbur; [3]): 10
Plant response rating, Sandbur (sandbur; [4]): 20
Sandbur plant response rating (sandbur; [5]): 30
Sandbur plant response rating (sandbur; [6]): 30
Plant response rating, Sandbur (sandbur; Rate 250 g/ha): 100
Plant response rating, Itchgrass (itchgrass; [3]): 0
Plant response rating, Itchgrass (itchgrass; [4]): 0
Plant response rating, Itchgrass (itchgrass; [5]): 0
Plant response rating, Itchgrass (itchgrass; [6]): 10
Plant response rating, Itchgrass (itchgrass; Rate 250 g/ha): 100
Plant response rating, C. purslane (common pursiane; [3]): 0
Plant response rating, C. purslane (common pursiane; [4]): 0
Plant response rating, C. purslane (common pursiane; [5]): 0
Plant response rating, C. purslane (common pursiane; [6]): 0
Plant response rating, C. purslane (common pursiane; Rate 250 g/ha): 0
Plant response rating, Green foxtail (Green foxtail [2]; Rate 64 g/ha): 100
Plant response rating, Green foxtail (Green foxtail [2]; Rate 125 g/ha): 100

COCC(C)n1c(=O)on(C(=O)N(c2ccc(F)cc2F)C(C)C)c1=O (stereo not drawn) [Compound 352]
Plant response rating, P. morninglory (pitted morningglory; [3]): 0
Plant response rating, P. morninglory (pitted morningglory; [4]): 0
Plant response rating, P. morninglory (pitted morningglory; [5]): 0
Plant response rating, P. morninglory (pitted morningglory; [6]): 0
Plant response rating, P. morninglory (pitted morningglory; Rate 250 g/ha): 0
Plant response rating, Purple nutsedge (purple nutsedge; [3]): 0
Plant response rating, Purple nutsedge (purple nutsedge; [4]): 0
Purple nutsedge plant response rating (purple nutsedge; [5]): 0
Purple nutsedge plant response rating (purple nutsedge; [6]): 0
Plant response rating, Purple nutsedge (purple nutsedge; Rate 250 g/ha): 0
Plant response rating, Tall Mallow (tall mallow; [3]): 0
Plant response rating, Tall Mallow (tall mallow; [4]): 0
Tall Mallow plant response rating (tall mallow; [5]): 30
Tall Mallow plant response rating (tall mallow; [6]): 30
Plant response rating, Tall Mallow (tall mallow; Rate 250 g/ha): 20
Plant response rating, Green foxtail (Green foxtail [1]): 100
Plant response rating, Bermudagrass (bermuda-grass; [3]): 0
Plant response rating, Bermudagrass (bermuda-grass; [4]): 80
Plant response rating, Bermudagrass (bermuda-grass; [5]): 100
Plant response rating, Bermudagrass (bermuda-grass; [6]): 100
Plant response rating, Bermudagrass (bermuda-grass; Rate 250 g/ha): 100
Plant response rating, Com. groundsel (common groundsel; [4]): 0
Plant response rating, Com. groundsel (common groundsel; [5]): 50
Plant response rating, Com. groundsel (common groundsel; [6]): 100
Plant response rating, Com. groundsel (common groundsel; Rate 250 g/ha): 100
Plant response rating Johnsongrass (Johnson grass; [3]): 0
Plant response rating Johnsongrass (Johnson grass; [4]): 0
Plant response rating Johnsongrass (Johnson grass; [5]): 0
Plant response rating Johnsongrass (Johnson grass; [6]): 40
Plant response rating Johnsongrass (Johnson grass; Rate 250 g/ha): 80
Plant response rating, Goosegrass (goosegrass; [3]): 0
Plant response rating, Goosegrass (goosegrass; [4]): 90
Plant response rating, Goosegrass (goosegrass; [5]): 100
Plant response rating, Goosegrass (goosegrass; [6]): 100
Plant response rating, Goosegrass (goosegrass; Rate 250 g/ha): 100
Plant response rating, Dallisgrass (dallisgrass; [3]): 0
Plant response rating, Dallisgrass (dallisgrass; [4]): 70
Plant response rating, Dallisgrass (dallisgrass; [5]): 80
Plant response rating, Dallisgrass (dallisgrass; [6]): 100
Plant response rating, Dallisgrass (dallisgrass; Rate 250 g/ha): 100
Plant response rating, Sandbur (sandbur; [3]): 0
Plant response rating, Sandbur (sandbur; [4]): 90
Sandbur plant response rating (sandbur; [5]): 70
Sandbur plant response rating (sandbur; [6]): 100
Plant response rating, Sandbur (sandbur; Rate 250 g/ha): 100
Plant response rating, Itchgrass (itchgrass; [3]): 0
Plant response rating, Itchgrass (itchgrass; [4]): 0
Plant response rating, Itchgrass (itchgrass; [5]): 0
Plant response rating, Itchgrass (itchgrass; [6]): 20
Plant response rating, Itchgrass (itchgrass; Rate 250 g/ha): 60
Plant response rating, C. purslane (common pursiane; [3]): 0
Plant response rating, C. purslane (common pursiane; [4]): 0
Plant response rating, C. purslane (common pursiane; [5]): 0
Plant response rating, C. purslane (common pursiane; [6]): 0
Plant response rating, C. purslane (common pursiane; Rate 250 g/ha): 0
Plant response rating, Green foxtail (Green foxtail [2]; Rate 64 g/ha): 100
Plant response rating, Green foxtail (Green foxtail [2]; Rate 125 g/ha): 100

CC(C)N(C(=O)n1oc(=O)n(C2(C)CC2)c1=O)c1ccccc1 [Compound 360]
Plant response rating, P. morninglory (pitted morningglory; [3]): 0
Plant response rating, P. morninglory (pitted morningglory; [4]): 0
Plant response rating, P. morninglory (pitted morningglory; [5]): 0
Plant response rating, P. morninglory (pitted morningglory; [6]): 0
Plant response rating, P. morninglory (pitted morningglory; Rate 250 g/ha): 10
Plant response rating, Purple nutsedge (purple nutsedge; [3]): 0
Plant response rating, Purple nutsedge (purple nutsedge; [4]): 0
Purple nutsedge plant response rating (purple nutsedge; [5]): 0
Purple nutsedge plant response rating (purple nutsedge; [6]): 10
Plant response rating, Purple nutsedge (purple nutsedge; Rate 250 g/ha): 20
Plant response rating, Tall Mallow (tall mallow; [3]): 0
Plant response rating, Tall Mallow (tall mallow; [4]): 0
Tall Mallow plant response rating (tall mallow; [5]): 40
Tall Mallow plant response rating (tall mallow; [6]): 60
Plant response rating, Tall Mallow (tall mallow; Rate 250 g/ha): 90
Plant response rating, Green foxtail (Green foxtail [1]): 100
Plant response rating, Bermudagrass (bermuda-grass; [3]): 0
Plant response rating, Bermudagrass (bermuda-grass; [4]): 100
Plant response rating, Bermudagrass (bermuda-grass; [5]): 100
Plant response rating, Bermudagrass (bermuda-grass; [6]): 100
Plant response rating, Bermudagrass (bermuda-grass; Rate 250 g/ha): 100
Plant response rating, Com. groundsel (common groundsel; [5]): 0
Plant response rating, Com. groundsel (common groundsel; [6]): 100
Plant response rating, Com. groundsel (common groundsel; Rate 250 g/ha): 100
Plant response rating Johnsongrass (Johnson grass; [3]): 0
Plant response rating Johnsongrass (Johnson grass; [4]): 0
Plant response rating Johnsongrass (Johnson grass; [5]): 0
Plant response rating Johnsongrass (Johnson grass; [6]): 50
Plant response rating Johnsongrass (Johnson grass; Rate 250 g/ha): 70
Plant response rating, Goosegrass (goosegrass; [3]): 20
Plant response rating, Goosegrass (goosegrass; [4]): 100
Plant response rating, Goosegrass (goosegrass; [5]): 100
Plant response rating, Goosegrass (goosegrass; [6]): 100
Plant response rating, Goosegrass (goosegrass; Rate 250 g/ha): 100
Plant response rating, Dallisgrass (dallisgrass; [3]): 0
Plant response rating, Dallisgrass (dallisgrass; [4]): 40
Plant response rating, Dallisgrass (dallisgrass; [5]): 100
Plant response rating, Dallisgrass (dallisgrass; [6]): 100
Plant response rating, Dallisgrass (dallisgrass; Rate 250 g/ha): 100
Plant response rating, Sandbur (sandbur; [3]): 0
Plant response rating, Sandbur (sandbur; [4]): 90
Sandbur plant response rating (sandbur; [5]): 50
Sandbur plant response rating (sandbur; [6]): 100
Plant response rating, Sandbur (sandbur; Rate 250 g/ha): 100
Plant response rating, Itchgrass (itchgrass; [3]): 0
Plant response rating, Itchgrass (itchgrass; [4]): 0
Plant response rating, Itchgrass (itchgrass; [5]): 0
Plant response rating, Itchgrass (itchgrass; [6]): 20
Plant response rating, Itchgrass (itchgrass; Rate 250 g/ha): 30
Plant response rating, C. purslane (common pursiane; [3]): 0
Plant response rating, C. purslane (common pursiane; [4]): 0
Plant response rating, C. purslane (common pursiane; [5]): 0
Plant response rating, C. purslane (common pursiane; [6]): 0
Plant response rating, C. purslane (common pursiane; Rate 250 g/ha): 0
Plant response rating, Green foxtail (Green foxtail [2]; Rate 64 g/ha): 100
Plant response rating, Green foxtail (Green foxtail [2]; Rate 125 g/ha): 100
